Read-outs that look alike come from different tables or passages of the source.
What was measured:
NCTC clone 1469 cells [1] = assay: Cytotoxicity control of the treated fabric test; format: cell-based, mouse; details: Formaldehyde control
Description: Controls were untreated fabric pieces of the same size. After incubation with the virus for 15, 30 or 60 minutes the samples were neutralized with D/E broth, vortexed to remove the virus from the fabric and passed over a Sephadex LH-20 column to remove potential cytotoxic substances. Serial dilutions of the column eluates were used to inoculate NCTC clone 1469 cells in a 96 well plate to determine the TCID50 for the virus at each time. After 14 days the wells were examined for cytopathological effects (CPE) in the cells and scored accordingly.

NCTC clone 1469 cells [2] = details: mouse, pH 7.3

C=O [Formaldehyde]
dilution to which all cells were killed (NCTC clone 1469 cells [1]): killed all cells to the 10^−2 dilution | dilution to which all cells were killed (NCTC clone 1469 cells [2]): killed all cells to the 10^4 dilution
